Measurements reported in patent US6441175B1, “1-(N'-arylalkylaminoalkyl)aminoisoquinolines: a new class of dopamine receptor subtype” (Neurogen Corporation, priority 1997, dated 2002).

Tests used:
D2 receptors = biological target: T1, D2 receptors (Chlorocebus aethiops, UniProt P52702); assay: Assay for D2 and D4 receptor binding activity (COS cells, 3H-YM 09151-2), D2; parameters: species or system African Green monkey; settings: recombinant D2 in COS cells; 0.5 nM 3H-YM 09151-2
T1 construct: expressed in transfected cells; host or cells: COS cells
T1 sequence (P52702 whole entry): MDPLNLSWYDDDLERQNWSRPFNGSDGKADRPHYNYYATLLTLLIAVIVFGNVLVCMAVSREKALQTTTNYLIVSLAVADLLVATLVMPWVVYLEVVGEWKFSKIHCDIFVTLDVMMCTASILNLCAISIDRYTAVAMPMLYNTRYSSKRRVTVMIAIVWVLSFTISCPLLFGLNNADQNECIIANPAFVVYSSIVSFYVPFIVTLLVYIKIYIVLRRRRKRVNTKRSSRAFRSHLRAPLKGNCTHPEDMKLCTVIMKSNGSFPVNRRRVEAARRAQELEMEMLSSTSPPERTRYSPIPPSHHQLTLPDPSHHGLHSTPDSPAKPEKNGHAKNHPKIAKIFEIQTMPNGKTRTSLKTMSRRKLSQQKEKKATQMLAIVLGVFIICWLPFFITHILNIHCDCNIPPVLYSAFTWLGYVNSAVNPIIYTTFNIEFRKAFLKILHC
Procedure: (§1) Assay For D2 And D4 Receptor Binding Activity
(§2) Pellets of COS cells containing recombinantly produced D2 or D4 receptors from African Green monkey were used for the assays. The sample is homogenized in 100 volumes (w/vol) of 0.05 M Tris HCl buffer at 4° C. and pH 7.4. The sample is then centrifuged at 30,000×g and resuspended and rehomogenized. The sample is then centrifuged as described and the final tissue sample is frozen until use. The tissue is resuspended 1:20 (wt/vol) in 0.05 M Tris HCl buffer containing 100 mM NaCl.
(§3) Incubations are carried out at 48° C. and contain 0.4 ml of tissue sample, 0.5 nM ^3H-YM 09151-2 and the compound of interest in a total incubation of 1.0 ml. Non-specific binding is defined as that binding found in the presence of […] spiperone; without further additions, nonspecific binding is less than 20% of total binding.

D4 receptors = assay: Assay for D2 and D4 receptor binding activity (COS cells, 3H-YM 09151-2), D4; parameters: species or system African Green monkey; settings: recombinant D4 in COS cells; 0.5 nM 3H-YM 09151-2; read-out: D4 K1
Procedure: as §1, §2, §3

| Compound | Ki (D2 receptors) | Ki (D4 receptors) | melting point |
| --- | --- | --- | --- |
| 1-(1-[2-{(4-[5-Fluoropyrimidin-2-yl])piperazin-1-yl}]ethyl)aminoisoquinoline hydrobromide [Compound 9] | 1500 nM | 13 nM | – |
| 1-(1-[3-{(4-Pyridin-2-yl)piperazin-1-yl}]propyl)aminoisoquinoline hydrobromide [Compound 10] | 773 nM | 2 nM | – |
| CN(CCCc1ccccc1)CCNC1=NCc2ccccc21 [Compound 3, 1-(N-[2-{N′-(3-phenylpropyl)-N′-methyl}aminoethyl])aminoisoindole dioxolate] | – | – | 175 to 177 °C |
